{"source": "patent US9878977B2", "about": "“N-((3,4,5-trimethoxystyryl)aryl)cinnamamide compounds as potential anticancer agents and process for the preparation thereof” (COUNCIL OF SCIENTIFIC & INDUSTRIAL RESEARCH, priority 2014, dated 2018)", "key": {"tubulin": {"system": "tubulin", "details": "reported in J. Med. Chem. 2008, 51, 6211; cited from earlier work"}, "MCF-7": {"system": "MCF-7", "assay": "SRB anti-proliferative assay, MCF-7", "type": "cell-based, Human", "description": "(§1) The synthesized N-(3,4,5-trimethoxystyryl)aryl)cinnamamides were evaluated for their anti-proliferative activity in selected human cancer cell lines of breast cancer (MCF-7), prostate cancer (DU-145), lung cancer (Hop-62), cervical cancer (Hela), leukemia (K562), ovarian cancer (SK-OV-3), colon cancer (Colo-205), pancreatic (MAIPA-CA-2) by using sulforhodamine B (SRB) method (Vichai, V.; Kirtikara, K. Nat. Protoc. 2006, 1, 1112). […] CA-4 was used as the reference compound."}, "DU-145": {"system": "DU-145", "assay": "SRB anti-proliferative assay, DU-145", "type": "cell-based, Human", "description": "as §1"}, "Hela": {"system": "Hela", "assay": "SRB anti-proliferative assay, Hela", "type": "cell-based, Human", "details": "read-out: GI50 Hela", "description": "as §1"}, "Colo-205": {"system": "Colo-205", "assay": "SRB anti-proliferative assay, Colo-205", "type": "cell-based, Human", "description": "as §1"}, "Hop-62 [1]": {"system": "Hop-62", "details": "Human lung cancer; data from NCI60 dose response (NSC 613729); cited from earlier work"}, "K562 [2]": {"system": "K562", "details": "Human leukemia; data from NCI60 dose response (NSC 613729); cited from earlier work"}, "SK-OV-3 [3]": {"system": "SK-OV-3", "details": "Human ovarian cancer; data from NCI60 dose response (NSC 613729); cited from earlier work"}, "Hop-62 [4]": {"system": "Hop-62", "assay": "SRB anti-proliferative assay, Hop-62", "type": "cell-based, Human", "details": "Homo sapiens, HOP-62, read-out: GI50 Hop-62", "description": "as §1"}, "K562 [5]": {"system": "K562", "assay": "SRB anti-proliferative assay, K562", "type": "cell-based, Human", "details": "Homo sapiens, K562, read-out: GI50 K562", "description": "as §1"}, "SK-OV-3 [6]": {"system": "SK-OV-3", "assay": "SRB anti-proliferative assay, SK-OV-3", "type": "cell-based, Human", "details": "Homo sapiens, SK-OV-3, read-out: GI50 SK-OV-3", "description": "as §1"}, "MAIPA-CA-2": {"system": "MAIPA-CA-2", "assay": "SRB anti-proliferative assay, MAIPA-CA-2", "type": "cell-based, Human", "details": "Homo sapiens, read-out: GI50 MAIPA-CA-2", "description": "as §1"}}, "note": "Like-named read-outs stand apart in the source and are kept apart here."}
{"molecule": "COc1cc(/C=C\\c2ccc(OC)c(N)c2)cc(OC)c1", "note": "[Compound S3, (Z)-5-(3,5-dimethoxystyryl)-2-methoxyaniline]", "values": [{"measurement": "inhibits tubulin polymerization, compared with CA-4", "setting": "tubulin", "result": "stronger than CA-4 by five folds"}]}
{"molecule": "COc1ccc(/C=C\\c2cc(OC)c(OC)c(OC)c2)cc1O", "note": "[CA-4, combretastatin A4, reference compound]", "values": [{"measurement": "GI50", "setting": "MCF-7; MCF7, Human breast cancer, concentration of drug causing 50% inhibition of cell growth, read-out: GI50 MCF-7", "result": 0.033, "unit": "µM"}, {"measurement": "GI50", "setting": "DU-145; DU-145, Human prostate cancer, concentration of drug causing 50% inhibition of cell growth, read-out: GI50 DU-145", "result": 0.046, "unit": "µM"}, {"measurement": "GI50", "setting": "Hela; Human cervical cancer, concentration of drug causing 50% inhibition of cell growth", "result": 0.008, "unit": "µM"}, {"measurement": "GI50", "setting": "Colo-205; COLO 205, Human colon cancer, concentration of drug causing 50% inhibition of cell growth, read-out: GI50 Colo-205", "result": 0.025, "unit": "µM"}, {"measurement": "GI50", "setting": "Hop-62 [1]", "result": 0.15, "unit": "µM"}, {"measurement": "GI50", "setting": "K562 [2]", "result": 0.031, "unit": "µM"}, {"measurement": "GI50", "setting": "SK-OV-3 [3]", "result": 31.6, "unit": "µM"}]}
{"molecule": "COc1ccc(C=Cc2cc(OC)c(OC)c(OC)c2)c(NC(=O)/C=C/c2ccc(C(F)(F)F)cc2)c1O", "note": "[Compound 20n, (E)-N-(2-Hydroxy-3-methoxy-6-(3,4,5-trimethoxystyryl)phenyl)-3-(4-(trifluoromethyl)phenyl)acrylamide]", "values": [{"measurement": "GI50", "setting": "MCF-7; Homo sapiens, MCF7, read-out: GI50 MCF-7", "result": 83.7, "unit": "µM"}, {"measurement": "GI50", "setting": "DU-145; Homo sapiens, DU-145, read-out: GI50 DU-145", "result": "> 100", "unit": "µM"}, {"measurement": "GI50", "setting": "Hop-62 [4]", "result": "> 100", "unit": "µM"}, {"measurement": "GI50", "setting": "Hela; Homo sapiens", "result": "> 100", "unit": "µM"}, {"measurement": "GI50", "setting": "K562 [5]", "result": 58, "unit": "µM"}, {"measurement": "GI50", "setting": "SK-OV-3 [6]", "result": "> 100", "unit": "µM"}, {"measurement": "GI50", "setting": "Colo-205; Homo sapiens, COLO 205, read-out: GI50 Colo-205", "result": "> 100", "unit": "µM"}, {"measurement": "GI50", "setting": "MAIPA-CA-2", "result": "> 100", "unit": "µM"}]}
